Source: publication PMC5513444, “The synthesis and evaluation of triazolopyrimidines as anti-tubercular agents” (Bioorganic & Medicinal Chemistry, 2017)
Values after ≈ are worked out from the molar mass of the structure shown.

Experiments:
M. tuberculosis H37Rv = test: MIC90 against M. tuberculosis in liquid medium; type: cell-based, Mycobacterium tuberculosis; conditions: liquid medium 7H9-Tw-OADC, aerobic, 5 days, average ± SD of two independent experiments; for MIC90: Mycobacterium tuberculosis, H37RV, 120 h, read-out: MIC (MIC90, minimum concentration required to inhibit growth of M. tuberculosis by 90%)
HepG2 cells = test: Cytotoxicity against HepG2 cell line (CellTiter-Glo); type: cell-based; conditions: for Selectivity index (SI) = IC50/MIC90: HepG2 IC50 / M. tuberculosis MIC90; for IC50: Homo sapiens, 48 h, HepG2, 2 days incubation, read-out: IC50 (concentration required to reduce the viability of HepG2 cells by 50%)

| SMILES | MIC90 (M. tuberculosis H37Rv) | MIC (MIC90, minimum concentration required to inhibit growth of M. tuberculosis by 90%) (M. tuberculosis H37Rv) | Selectivity index (SI) = IC50/MIC90 (HepG2 cells) | IC50 (HepG2 cells) | melting point |
| --- | --- | --- | --- | --- | --- |
| COc1ccc(CCNc2cc(-c3ccccc3)nc3ncnn23)cc1 [Compound 1, N-(4-methoxyphenethyl)-5-phenyl-[1,2,4]triazolo[1,5-a]pyrimidin-7-amine] | 3.1 µM (≈ 1.07 µg/mL) | 3.1 ± 1.3 µM | >32 | > 100 µM |  |
| COc1ccc(CCNc2cc(-c3ccc(OC)cc3)nc3ncnn23)cc1 [Compound 7, N-(4-Methoxyphenethyl)-5-(4-methoxyphenyl)-[1,2,4]triazolo[1,5-a]pyrimidin-7-amine] | > 20 µM |  |  | > 100 µM | 130 to 131 °C |
| COc1ccc(CCNc2cc(-c3ccccc3OC)nc3ncnn23)cc1 [Compound 8, N-(4-Methoxyphenethyl)-5-(2-methoxyphenyl)-[1,2,4]triazolo[1,5-a]pyrimidin-7-amine] | > 20 µM |  |  | 87 µM | 148 to 149 °C |
| COc1ccc(CCNc2cc(-c3ccc(C)cc3)nc3ncnn23)cc1 [Compound 9, N-(4-Methoxyphenethyl)-5-(p-tolyl)-[1,2,4]triazolo[1,5-a]pyrimidin-7-amine] | > 20 µM |  |  | 37 µM | 155 to 156 °C |
| CCc1ccc(-c2cc(NCCc3ccc(OC)cc3)n3ncnc3n2)cc1 [Compound 10, 5-(4-Ethylphenyl)-N-(4-methoxyphenethyl)-[1,2,4]triazolo[1,5-a]pyrimidin-7-amine] | > 20 µM |  |  | > 100 µM |  |
| COc1ccc(CCNc2cc(-c3ccc(Cl)cc3)nc3ncnn23)cc1 [Compound 11, 5-(4-Chlorophenyl)-N-(4-methoxyphenethyl)-[1,2,4]triazolo[1,5-a]pyrimidin-7-amine] | > 20 µM |  |  | 65 µM | 178 to 180 °C |
| COc1ccc(CCNc2cc(-c3ccccc3Cl)nc3ncnn23)cc1 [Compound 12, 5-(2-Chlorophenyl)-N-(4-methoxyphenethyl)-[1,2,4]triazolo[1,5-a]pyrimidin-7-amine] | > 20 µM |  |  | > 100 µM |  |
| COc1ccc(CCNc2cc(-c3ccc(F)cc3)nc3ncnn23)cc1 [Compound 13, 5-(4-Fluorophenyl)-N-(4-methoxyphenethyl)-[1,2,4]triazolo[1,5-a]pyrimidin-7-amine] | 4.4 ± 2 µM (≈ 1.6 µg/mL) |  |  | 89 µM | 153 to 155 °C |
| COc1ccc(CCNc2cc(-c3ccccc3F)nc3ncnn23)cc1 [Compound 14, 5-(2-Fluorophenyl)-N-(4-methoxyphenethyl)-[1,2,4]triazolo[1,5-a]pyrimidin-7-amine] | 3 ± 0.21 µM (≈ 1.09 µg/mL) |  | >30 | > 100 µM | 153 to 155 °C |
| COc1ccc(CCNc2cc(-c3ccc(C(F)(F)F)cc3)nc3ncnn23)cc1 [Compound 15, N-(4-Methoxyphenethyl)-5-(4-(trifluoromethyl)phenyl)-[1,2,4]triazolo[1,5-a]pyrimidin-7-amine] | > 20 µM |  |  | > 100 µM | 191 to 193 °C |
| COc1ccc(CCNc2cc(-c3cccnc3)nc3ncnn23)cc1 [Compound 17, N-(4-Methoxyphenethyl)-5-(pyridin-3-yl)-[1,2,4]triazolo[1,5-a]pyrimidin-7-amine] | > 20 µM |  |  | > 100 µM | 152 to 153 °C |
| COc1ccc(CCNc2cc(-c3ccncc3)nc3ncnn23)cc1 [Compound 18, N-(4-Methoxyphenethyl)-5-(pyridin-4-yl)-[1,2,4]triazolo[1,5-a]pyrimidin-7-amine] | > 20 µM |  |  | 69 µM | 217 to 219 °C |
| COc1ccc(CCNc2cc(Cc3ccccc3)nc3ncnn23)cc1 [Compound 19, 5-Benzyl-N-(4-methoxyphenethyl)-[1,2,4]triazolo[1,5-a]pyrimidin-7-amine] | > 20 µM |  |  | 57 µM | 119 to 121 °C |
| COc1ccc(CCNc2cc(C)nc3ncnn23)cc1 [Compound 20, N-(4-Methoxyphenethyl)-5-methyl-[1,2,4]triazolo[1,5-a]pyrimidin-7-amine] | > 20 µM |  |  | > 100 µM | 129 to 130 °C |
| CCc1cc(NCCc2ccc(OC)cc2)n2ncnc2n1 [Compound 21, 5-ethyl-N-(4-methoxyphenethyl)-[1,2,4]triazolo[1,5-a]pyrimidin-7-amine] | > 20 µM |  |  | > 100 µM | 70 to 72 °C |
| COc1ccc(CCNc2cc(C3CC3)nc3ncnn23)cc1 [Compound 22] | 5.8 ± 1.6 µM (≈ 1.79 µg/mL) |  | >17 | > 100 µM |  |
| COc1ccc(CCNc2cc(C3CCC3)nc3ncnn23)cc1 [Compound 23, 5-Cyclobutyl-N-(4-methoxyphenethyl)-[1,2,4]triazolo[1,5-a]pyrimidin-7-amine] | 2.9 ± 0.71 µM (≈ 0.938 µg/mL) |  | >34 | > 100 µM | 99 to 100 °C |
| COc1ccc(CCNc2cc(C3CCCC3)nc3ncnn23)cc1 [Compound 24, 5-Cyclopentyl-N-(4-methoxyphenethyl)-[1,2,4]triazolo[1,5-a]pyrimidin-7-amine] | 5.5 ± 0.07 µM (≈ 1.86 µg/mL) |  | 17 | 95 µM | 99 to 100 °C |

| SMILES | MIC90 (M. tuberculosis H37Rv) | MIC (MIC90, minimum concentration required to inhibit growth of M. tuberculosis by 90%) (M. tuberculosis H37Rv) | Selectivity index (SI) = IC50/MIC90 (HepG2 cells) | IC50 (HepG2 cells) | melting point |
| --- | --- | --- | --- | --- | --- |
| COc1ccc(CCNc2cc(C3CCCCC3)nc3ncnn23)cc1 [Compound 25, 5-Cyclohexyl-N-(4-methoxyphenethyl)-[1,2,4]triazolo[1,5-a]pyrimidin-7-amine] | > 20 µM |  |  | 47 µM | 193 to 194 °C |
| c1ccc(-c2ccn3ncnc3n2)cc1 [Compound 27, 5-Phenyl-[1,2,4]triazolo[1,5-a]pyrimidine] | > 20 µM |  |  | > 20 µM | 179 to 181 °C |
| Nc1cc(-c2ccccc2)nc2ncnn12 [Compound 28, 5-Phenyl-[1,2,4]triazolo[1,5-a]pyrimidin-7-amine] | > 20 µM |  |  | > 20 µM | 302 to 304 °C |
| CNc1cc(-c2ccccc2)nc2ncnn12 [Compound 29, N-Methyl-5-phenyl-[1,2,4]triazolo[1,5-a]pyrimidin-7-amine] | > 20 µM |  |  | > 20 µM | 200 to 202 °C |
| CCNc1cc(-c2ccccc2)nc2ncnn12 [Compound 30, N-Ethyl-5-phenyl-[1,2,4]triazolo[1,5-a]pyrimidin-7-amine] | > 20 µM |  |  | 37 µM | 170 to 172 °C |
| CCCNc1cc(-c2ccccc2)nc2ncnn12 [Compound 31, 5-Phenyl-N-propyl-[1,2,4]triazolo[1,5-a]pyrimidin-7-amine] | > 20 µM |  |  | 94 µM | 139 to 140 °C |
| CCCCNc1cc(-c2ccccc2)nc2ncnn12 [Compound 32, N-Butyl-5-phenyl-[1,2,4]triazolo[1,5-a]pyrimidin-7-amine] | > 20 µM |  |  | 98 µM | 125 to 126 °C |
| COCCNc1cc(-c2ccccc2)nc2ncnn12 [Compound 33, N-(2-Methoxyethyl)-5-phenyl-[1,2,4]triazolo[1,5-a]pyrimidin-7-amine] | > 20 µM |  |  | > 100 µM | 116 to 118 °C |
| c1ccc(-c2cc(NC3CC3)n3ncnc3n2)cc1 [Compound 34, N-Cyclopropyl-5-phenyl-[1,2,4]triazolo[1,5-a]pyrimidin-7-amine] | > 20 µM |  |  | > 100 µM | 193 to 195 °C |
| c1ccc(-c2cc(NC3CCC3)n3ncnc3n2)cc1 [Compound 35, N-Cyclobutyl-5-phenyl-[1,2,4]triazolo[1,5-a]pyrimidin-7-amine] | > 20 µM |  |  | 57 µM | 193 to 194 °C |
| c1ccc(-c2cc(NCCC3CCCCC3)n3ncnc3n2)cc1 [Compound 36, N-(2-Cyclohexylethyl)-5-phenyl-[1,2,4]triazolo[1,5-a]pyrimidin-7-amine] | 17 ± 2.1 µM (≈ 5.46 µg/mL) |  | >6 | > 100 µM | 168 to 169 °C |
| COc1ccc(Nc2cc(-c3ccccc3)nc3ncnn23)cc1 [Compound 37, N-(4-Methoxyphenyl)-5-phenyl-[1,2,4]triazolo[1,5-a]pyrimidin-7-amine] | > 20 µM |  |  | 49 µM | 200 to 202 °C |
| COc1ccc(CNc2cc(-c3ccccc3)nc3ncnn23)cc1 [Compound 38, N-(4-Methoxybenzyl)-5-phenyl-[1,2,4]triazolo[1,5-a]pyrimidin-7-amine] | > 20 µM |  |  | 43 µM | 162 to 163 °C |
| FC(F)(F)c1ccc(CCNc2cc(-c3ccccn3)nc3ncnn23)cc1 [Compound 58, 5-(Pyridin-2-yl)-N-(4-(trifluoromethyl)phenethyl)-[1,2,4]triazolo[1,5-a]pyrimidin-7-amine] | 0.98 ± 0.4 µM (≈ 0.377 µg/mL) |  | >119 | > 100 µM |  |
| Clc1ccc(CCNc2cc(-c3ccccn3)nc3ncnn23)cc1 [Compound 60, N-(4-Chlorophenethyl)-5-(pyridin-2-yl)-[1,2,4]triazolo[1,5-a]pyrimidin-7-amine] | 0.76 ± 0.25 µM (≈ 0.267 µg/mL) |  | >135 | > 100 µM |  |
| COc1ccc(C2CCCN(c3cc(-c4ccccn4)nc4ncnn34)C2)cc1 (stereo not shown) [Compound 63, 7-(3-(4-Methoxyphenyl)piperidin-1-yl)-5-(pyridin-2-yl)-[1,2,4]triazolo[1,5-a]pyrimidine] | > 20 µM |  |  | 16 µM |  |
| COc1ccc(C2CN(c3cc(-c4ccccn4)nc4ncnn34)CCO2)cc1 (stereo not shown) [Compound 64, 2-(4-Methoxyphenyl)-4-(5-(pyridin-2-yl)-[1,2,4]triazolo[1,5-a]pyrimidin-7-yl)morpholine] | > 20 µM |  |  | 50 µM |  |
